Data: patent US9604982B2, “P2X7 modulators” (Janssen Pharmaceutica NV, priority 2013, dated 2017)
Where two headings read alike, the source gives them in different places.

Biological target: P2X7 (Homo sapiens (Human), UniProt Q99572)
Assay: P2X7 antagonism in human peripheral blood mononuclear cells (PBMCs), IL-1β release after LPS + Bz-ATP (ELISA)
Format: cell-based
Conditions: 0.5 mM Bz-ATP; for remaining activity at 10 µM: read-out: PBMC 10 μM (% control); for PBMC 10 μM (% control): Table 3 (additional runs)
Method: Human blood was collected using a blood donor program. […] Cells were incubated for an additional 1.5 hours. […] Data are analyzed and graphed on Graphpad Prism 5. […] The IC50 for each compound is then uploaded into 3DX.

P2X7, sequence (Q99572 whole entry): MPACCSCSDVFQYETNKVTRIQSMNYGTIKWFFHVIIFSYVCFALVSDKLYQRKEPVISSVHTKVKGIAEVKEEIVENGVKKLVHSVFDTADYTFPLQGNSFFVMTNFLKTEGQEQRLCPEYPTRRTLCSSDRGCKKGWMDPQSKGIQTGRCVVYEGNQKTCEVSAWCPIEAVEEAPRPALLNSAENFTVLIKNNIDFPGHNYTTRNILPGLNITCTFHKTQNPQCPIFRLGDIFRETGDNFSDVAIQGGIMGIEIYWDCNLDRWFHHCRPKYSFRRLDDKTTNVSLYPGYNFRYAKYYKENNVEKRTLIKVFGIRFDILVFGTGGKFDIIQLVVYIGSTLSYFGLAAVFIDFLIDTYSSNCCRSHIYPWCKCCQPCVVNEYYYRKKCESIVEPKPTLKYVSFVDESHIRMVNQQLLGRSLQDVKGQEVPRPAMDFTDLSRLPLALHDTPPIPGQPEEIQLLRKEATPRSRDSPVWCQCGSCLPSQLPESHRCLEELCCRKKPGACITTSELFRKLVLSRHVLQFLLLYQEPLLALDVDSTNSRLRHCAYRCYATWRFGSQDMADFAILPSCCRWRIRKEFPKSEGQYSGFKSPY

| SMILES | remaining activity at 10 µM (P2X7, Table 2, 10 μM compound) [%] | PBMC 10 μM (% control) (10 μM compound) | remaining activity at 10 µM (P2X7, Table 3 (additional runs), 10 μM compound) [%] |
| --- | --- | --- | --- |
| Cc1nc2c(c(-c3ccn[nH]3)n1)C[C@H](C)N(C(=O)c1ccc(Cl)cc1Cl)C2 (single isomer, unassigned) [Example 85, (S*)-(2,4-dichlorophenyl)(2,6-dimethyl-4-(1H-pyrazol-5-yl)-5,6-dihydropyrido[3,4-d]pyrimidin-7(8H)-yl)methanone] | -0.8 | −0.8 |  |
| Cc1nc2c(c(-c3ccn[nH]3)n1)C[C@H](C)N(C(=O)c1cccc(C(F)(F)F)c1C)C2 (single isomer, unassigned) [Example 79, (S*)-(2,6-dimethyl-4-(1H-pyrazol-5-yl)-5,6-dihydropyrido[3,4-d]pyrimidin-7(8H)-yl)(2-methyl-3-(trifluoromethyl)phenyl)methanone] | 2.6 | 2.6 |  |
| Cc1nc2c(c(-c3ccn[nH]3)n1)C[C@@H](C)N(C(=O)c1ccc(F)cc1Cl)C2 (single isomer, unassigned) [Example 91, (R*)-(2-chloro-4-fluorophenyl)(2,6-dimethyl-4-(1H-pyrazol-5-yl)-5,6-dihydropyrido[3,4-d]pyrimidin-7(8H)-yl)methanone] | -8.8 | −8.8 |  |
| Cc1nc2c(c(-c3ccn[nH]3)n1)C[C@@H](C)N(C(=O)c1ccc(Cl)c(F)c1Cl)C2 [Example 71, (R)-(2,4-dichloro-3-fluorophenyl)(2,6-dimethyl-4-(1H-pyrazol-5-yl)-5,6-dihydropyrido[3,4-d]pyrimidin-7(8H)-yl)methanone] | -4.1 | −4.1 |  |
| Cc1nc2c(c(-c3ccn[nH]3)n1)C[C@H](C)N(C(=O)c1cccc(Cl)c1Cl)C2 (single isomer, unassigned) [Example 69, (S*)-(2,3-dichlorophenyl)(2,6-dimethyl-4-(1H-pyrazol-5-yl)-5,6-dihydropyrido[3,4-d]pyrimidin-7(8H)-yl)methanone] | -6.2 | −6.2 |  |
| Cc1nc2c(c(-c3ccn[nH]3)n1)C[C@H](C)N(C(=O)c1ccc(F)c(C(F)(F)F)c1Cl)C2 (single isomer, unassigned) [Example 65, (S*)-(2-chloro-4-fluoro-3-(trifluoromethyl)phenyl)(2,6-dimethyl-4-(1H-pyrazol-5-yl)-5,6-dihydropyrido[3,4-d]pyrimidin-7(8H)-yl)methanone] | 3.9 | 3.9 |  |
| Cc1nc2c(c(-c3ccn[nH]3)n1)C[C@@H](C)N(C(=O)c1cccc(Cl)c1Cl)C2 (single isomer, unassigned) [Example 68, (R*)-(2,3-dichlorophenyl)(2,6-dimethyl-4-(1H-pyrazol-5-yl)-5,6-dihydropyrido[3,4-d]pyrimidin-7(8H)-yl)methanone] | -0.5 | −0.5 |  |
| Cc1nc2c(c(-c3ccn[nH]3)n1)C[C@@H](C)N(C(=O)c1cccc(C(F)(F)F)c1F)C2 (single isomer, unassigned) [Example 75, (R*)-(2,6-dimethyl-4-(1H-pyrazol-5-yl)-5,6-dihydropyrido[3,4-d]pyrimidin-7(8H)-yl)(2-fluoro-3-(trifluoromethyl)phenyl)methanone] | 2.4 | 2.4 |  |
| Cc1nc2c(c(-c3ccn[nH]3)n1)C[C@@H](C)N(C(=O)c1cccc(C(F)(F)F)c1C)C2 (single isomer, unassigned) [Example 78, (R*)-(2,6-dimethyl-4-(1H-pyrazol-5-yl)-5,6-dihydropyrido[3,4-d]pyrimidin-7(8H)-yl)(2-methyl-3-(trifluoromethyl)phenyl)methanone] | 1.4 | 1.4 |  |
| Cc1nc2c(c(-c3ccn[nH]3)n1)C[C@@H](C)N(C(=O)c1ccc(Cl)cc1Cl)C2 (single isomer, unassigned) [Example 84, (R*)-(2,4-dichlorophenyl)(2,6-dimethyl-4-(1H-pyrazol-5-yl)-5,6-dihydropyrido[3,4-d]pyrimidin-7(8H)-yl)methanone] | 7.5 | 7.5 |  |
| Cc1nc2c(c(-c3ccn[nH]3)n1)C[C@H](C)N(C(=O)c1cccc(C(F)(F)F)c1F)C2 (single isomer, unassigned) [Example 76, (S*)-(2,6-dimethyl-4-(1H-pyrazol-5-yl)-5,6-dihydropyrido[3,4-d]pyrimidin-7(8H)-yl)(2-fluoro-3-(trifluoromethyl)phenyl)methanone] | 14.3 |  |  |
| Cc1nc2c(c(-c3ccn[nH]3)n1)C[C@@H](C)N(C(=O)c1ccc(Cl)cc1F)C2 (single isomer, unassigned) [Example 88, (R*)-(4-chloro-2-fluorophenyl)(2,6-dimethyl-4-(1H-pyrazol-5-yl)-5,6-dihydropyrido[3,4-d]pyrimidin-7(8H)-yl)methanone] | 49.4 |  |  |
| Cc1nc2c(c(-c3ccn[nH]3)n1)C[C@@H](C)N(C(=O)c1ccc(F)c(C(F)(F)F)c1Cl)C2 (single isomer, unassigned) [Example 66, (R*)-(2-chloro-4-fluoro-3-(trifluoromethyl)phenyl)(2,6-dimethyl-4-(1H-pyrazol-5-yl)-5,6-dihydropyrido[3,4-d]pyrimidin-7(8H)-yl)methanone] | -6.1 | −6.1 |  |

Further lines, results first:

| remaining activity at 10 µM (P2X7, Table 2, 10 μM compound) [%] | PBMC 10 μM (% control) (10 μM compound) | remaining activity at 10 µM (P2X7, Table 3 (additional runs), 10 μM compound) [%] | SMILES |
| --- | --- | --- | --- |
| 6.3 | 6.3 |  | CC(C)c1nc2c(c(-c3ccn[nH]3)n1)C[C@H](C)N(C(=O)c1cccc(C(F)(F)F)c1Cl)C2 (single isomer, unassigned) [Example 103, (S*)-(2-chloro-3-(trifluoromethyl)phenyl)(2-isopropyl-6-methyl-4-(1H-pyrazol-5-yl)-5,6-dihydropyrido[3,4-d]pyrimidin-7(8H)-yl)methanone] |
| 11.7 |  |  | CC(C)c1nc2c(c(-c3ccn[nH]3)n1)C[C@@H](C)N(C(=O)c1cccc(C(F)(F)F)c1Cl)C2 (single isomer, unassigned) [Example 102, (R*)-(2-chloro-3-(trifluoromethyl)phenyl)(2-isopropyl-6-methyl-4-(1H-pyrazol-5-yl)-5,6-dihydropyrido[3,4-d]pyrimidin-7(8H)-yl)methanone] |
| 13.3 |  |  | C[C@H]1c2ncnc(-c3ccn[nH]3)c2CCN1C(=O)c1ccc(Cl)c(F)c1Cl (single isomer, unassigned) [Example 123, (S*)-(2,4-dichloro-3-fluorophenyl)(8-methyl-4-(1H-pyrazol-5-yl)-5,6-dihydropyrido[3,4-d]pyrimidin-7(8H)-yl)methanone] |
| 9.4 | 9.4 |  | Cc1nc2c(c(-c3ccn[nH]3)n1)C[C@H](C)N(C(=O)c1ccc(F)cc1Cl)C2 (single isomer, unassigned) [Example 92, (S*)-(2-chloro-4-fluorophenyl)(2,6-dimethyl-4-(1H-pyrazol-5-yl)-5,6-dihydropyrido[3,4-d]pyrimidin-7(8H)-yl)methanone] |
| 18.6 |  |  | Cc1nc2c(c(-c3ccn(CCF)n3)n1)C[C@@H](C)N(C(=O)c1cccc(C(F)(F)F)c1Cl)C2 (single isomer, unassigned) [Example 124, (R*)-(2-chloro-3-(trifluoromethyl)phenyl)(4-(1-(2-fluoroethyl)-1H-pyrazol-3-yl)-2,6-dimethyl-5,6-dihydropyrido[3,4-d]pyrimidin-7(8H)-yl)methanone] |
| -1.5 | −1.5 |  | C[C@@H]1c2ncnc(-c3ccn[nH]3)c2CCN1C(=O)c1ccc(F)c(Cl)c1Cl (single isomer, unassigned) [Example 119, (R*)-(2,3-dichloro-4-fluorophenyl)(8-methyl-4-(1H-pyrazol-5-yl)-5,6-dihydropyrido[3,4-d]pyrimidin-7(8H)-yl)methanone] |
| -2.1 | −2.1 |  | C[C@@H]1c2ncnc(-c3ccn[nH]3)c2CCN1C(=O)c1cccc(C(F)(F)F)c1Cl (single isomer, unassigned) [Example 113, (R*)-(2-chloro-3-(trifluoromethyl)phenyl)(8-methyl-4-(1H-pyrazol-5-yl)-5,6-dihydropyrido[3,4-d]pyrimidin-7(8H)-yl)methanone] |
| -19.2 |  |  | Cc1nc2c(c(-c3ccn[nH]3)n1)C[C@H](C)N(C(=O)c1ccc(F)cc1F)C2 (single isomer, unassigned) [Example 95, (S*)-(2,4-difluorophenyl)(2,6-dimethyl-4-(1H-pyrazol-5-yl)-5,6-dihydropyrido[3,4-d]pyrimidin-7(8H)-yl)methanone] |
| 0.1 | 0.1 |  | C[C@H]1c2ncnc(-c3ccn[nH]3)c2CCN1C(=O)c1ccc(F)c(C(F)(F)F)c1Cl (single isomer, unassigned) [Example 117, (S*)-(2-chloro-4-fluoro-3-(trifluoromethyl)phenyl)(8-methyl-4-(1H-pyrazol-5-yl)-5,6-dihydropyrido[3,4-d]pyrimidin-7(8H)-yl)methanone] |
| 4 | 4.0 |  | CCc1nc2c(c(-c3ccn[nH]3)n1)C[C@H](C)N(C(=O)c1cccc(C(F)(F)F)c1Cl)C2 (single isomer, unassigned) [Example 100, (S*)-(2-chloro-3-(trifluoromethyl)phenyl)(2-ethyl-6-methyl-4-(1H-pyrazol-5-yl)-5,6-dihydropyrido[3,4-d]pyrimidin-7(8H)-yl)methanone] |
|  |  | 110 | COc1cncc(C(=O)N2Cc3nc(C)nc(-c4ccn[nH]4)c3CC2C)c1 (centres unmarked) [Example 147, (2,6-dimethyl-4-(1H-pyrazol-5-yl)-5,6-dihydropyrido[3,4-d]pyrimidin-7(8H)-yl)(5-methoxypyridin-3-yl)methanone] |
